Columns and labels:
TMC-23 cells = assay: Chondrogenic activity: alkaline phosphatase (ALP) activity in TMC-23 cells; type: cell-based, mouse; conditions: day 2, 10^−9 M
Procedure: For measurement of alkaline phosphatase (ALP) activity, the technique of LF Bonewald et al. J. Biol Chem (1992) 267:8943-49, was employed. Briefly, TMC-23 cells were plated in 96 well microtiter plates in DMEM containing 10% FCS at 4×10^3 cells/well. Two days after plating, the cells were confluent and the medium was replaced with fresh medium containing 10% FCS and different concentrations of compounds or recombinant BMP-2. After an additional 2 or 5 days incubation, the plates were washed twice with PBS, and then lysing solution (0.05% Triton X-100) was added (100 μl/well). The cells were lysed by three freeze-thaw cycles of −70° C. (30 min), followed by 37° C. (30 min with shaking). Twenty microliters of cell lysates were assayed with 80 μl of 5 mM p-nitrophenol phosphate in 1.5 M 2-amino-2-methyl-propanol buffer, pH 10.3 (Sigma ALP kit, Sigma Chemical Co., St. Louis, Mo.) for 10 min at 37° C. The reaction was stopped by the addition of 100 μl of 0.5 M NaOH. The spectrophotometric absorbance at 405 nm was compared to that of p-nitrophenol standards to estimate ALP activity in the samples. The protein content of the cell lysates was determined by the Bio-Rad protein assay kit (Bio-Rad, Hercules, Calif.). Specific activity was calculated using these two parameters.

BMP2 promoter = assay: High throughput screening: BMP-2 promoter luciferase reporter in 2T3-BMP-2-LUC cells; type: cell-based, mouse
Description: A rapid throughput screening test for compounds capable of stimulating expression of a reporter gene linked to a BMP promoter (a surrogate for the production of bone morphogenetic factors that are endogenously produced) is described in WO96/38590 published Dec. 5, 1996, the contents of which are incorporated herein by reference. This assay is also described as a portion of a study of immortalized murine osteoblasts (derived from a mouse expressing a transgene composed of a BMP2 promoter driving expression of T-antigen) in Ghosh-Choudhery, N. et al. Endocrinology (1996) 137:331-39. In this study, the immortalized cells were stably transfected with a plasmid containing a luciferase reporter gene driven by a mouse BMP2 promoter (−2736/114 bp), and responded in a dose-dependent manner to recombinant human BMP2.
Briefly, the assay utilizes cells transformed permanently or transiently with constructs in which the promoter of a bone morphogenetic protein, specifically BMP2 or BMP4, is coupled to a reporter gene, typically luciferase. These transformed cells are then evaluated for the production of the reporter gene product; compounds that activate the BMP promoter will drive production of the reporter protein, which can be readily assayed. Over 40,000 compounds have been subjected to this rapid screening technique, and only a very small percentage are able to elicit a level of production of luciferase 5-fold greater than that produced by vehicle. […] The active compounds (“BMP promoter-active compounds” or “active compounds”) are useful in promoting bone or cartilage growth, and thus in the treatment of vertebrates in need of bone or cartilage growth.
Several tens of thousands of compounds were tested in the assay system set forth in WO 96/38590, published Dec. 5, 1996, and incorporated herein by reference. […]
The treated cells were incubated for 24 hours at 37° C. and 5% CO2. […] Luminescence was measured on an automated 96-well luminometer, and was expressed as either picograms of luciferase activity per well or as picograms of luciferase activity per microgram of protein. […]

Swiss white mice = assay: In vivo assay of effects of compounds on murine calvarial bone growth; design: species or system mouse; conditions: as compared to a vehicle control
Procedure: Male ICR Swiss white mice, aged 4-6 weeks and weighing 13-26 gm, are employed, using 4-5 mice per group. The calvarial bone growth assay is performed as described in PCT application WO 95/24211. Briefly, the test compound or appropriate control vehicle is injected into the subcutaneous tissue over the right calvaria of normal mice. Typically, the control vehicle is the vehicle in which the compound was solubilized, and is PBS containing 5% DMSO or is PBS containing Tween (2 μl/10 ml). The animals are sacrificed on day 14 and bone growth measured by histomorphometry. Bone samples for quantitation are cleaned from adjacent tissues and fixed in 10% buffered formalin for 24-48 hours, decalcified in 14% EDTA for 1-3 weeks, processed through graded alcohols; and embedded in paraffin wax. Three to five μm sections of the calvaria are prepared, and representative sections are selected for histomorphometric assessment of the effects on bone formation and bone resorption. Sections are measured by using a camera lucida attachment to trace directly the microscopic image onto a digitizing plate. Bone changes are measured on sections cut 200 μm apart, over 4 adjacent 1×1 mm fields on both the injected and noninjected sides of the calvaria. […]
Similar results are obtained when new bone width in microns is measured. […]

neonatal mouse calvaria = assay: Ex vivo (neonatal mouse) calvarial bone growth assay; type: cell-based
Procedure: This assay is similar to that described by Gowen M. & Mundy G. J Immunol (1986) 136:2478-82. Briefly, four days after birth, the front and parietal bones of ICR Swiss white mouse pups are removed by microdissection and split along the sagittal suture. The bones are incubated in BGJb medium (Irvine Scientific, Santa Ana, Calif.) plus 0.02% (or lower concentration) β-methylcyclodextrin, wherein the medium also contains test or control substances, at 37° C. in a humidified atmosphere of 5% CO2 and 95% air for 96 hours.
Following this, the bones are removed from the incubation media and fixed in 10% buffered formalin for 24-48 hours, decalcified in 14% EDTA for 1 week, processed through graded alcohols; and embedded in paraffin wax. Three μm sections of the calvaria are prepared. Representative sections are selected for histomorphometric assessment of bone formation and bone resorption. Bone changes are measured on sections cut 200 μm apart. Osteoblasts and osteoclasts are identified by their distinctive morphology.
A number of compounds, in particular, those studied in connection with lead compounds classified as hydrazone/hydrazides (H) exemplified by 59-0045, benzothiazoles (T) exemplified by 59-0104, bis-pyridines (P) exemplified by 59-0145, and quinolines/quinoxalines (Q) exemplified by 59-0197, were tested in the ex vivo calvarial assay described hereinabove.
The scores are assigned to bone formation on the ectocranial periosteal surface. The area immediately surrounding midline suture is excluded from analysis.
In all samples, toxicity, ectopic new or woven bone formation associated with osteoblasts, and osteoblast size as reflections of relative activity are noted.

ovariectomized rats = assay: Stimulation of bone growth in ovariectomized rats (OVX assay); type: in vivo, rat
Procedure: Lead compounds also be tested in acute ovariectomized animals (prevention model) using an in vivo dosing assay. Such assays may also include an estrogen-treated group as a control. An exemplary subcutaneous dosing assay is performed as follows:
In a typical study, 80 three-month-old female Sprague-Dawley rats are weight-matched and divided into eight groups, with ten animals in each group. This includes a baseline control group of animals sacrificed at the initiation of the study; three control groups (sham ovariectomized (sham OVX)+vehicle only; ovariectomized (OVX)+vehicle only; PBS-treated OVX); and a control OVX group that is administered a compound known to promote bone growth. Three dosage levels of the compound to be tested are administered to the remaining three groups of OVX animals.
Since ovariectomy (OVX) induces hyperphagia, all OVX animals are pair-fed with sham OVX animals throughout the 35 day study. Briefly, test compound, positive control compound, PBS, or vehicle alone is administered subcutaneously once per day for 35 days. Alternatively, test compound can be formulated in implantable pellets that are implanted for 35 days, or may be administered orally, such as by gastric gavage. All animals, including sham OVX/vehicle and OVX/vehicle groups, are injected intraperitoneally with calcein nine days and two days before sacrifice (two injections of calcein administered each designated day, to ensure proper labeling of newly formed bone). Weekly body weights are determined. At the end of the 35-day cycle, the animals' blood and tissues are processed as described above.
Lead compounds may also be tested in chronic OVX animals (treatment model). An exemplary protocol for treatment of established bone loss in ovariectomized animals that can be used to assess efficacy of anabolic agents may be performed as follows. Briefly, 80 to 100 six month old female, Sprague-Dawley rats are subjected to sham surgery (sham OVX) or ovariectomy (OVX) at time 0, and 10 rats are sacrificed to serve as baseline controls. Body weights are recorded weekly during the experiment. After approximately 6 weeks of bone depletion (42 days), 10 sham OVX and 10 OVX rats are randomly selected for sacrifice as depletion period controls. Of the remaining animals, 10 sham OVX and 10 OVX rats are used as placebo-treated controls. The remaining OVX animals are treated with 3 to 5 doses of test drug for a period of 5 weeks (35 days). As a postitive control, a group of OVX rats can be treated with an agent such as PTH, a known anabolic agent in this model (Kimmel et al. Endocrinology (1993) 132:1577-84). To determine effects on bone formation, the following procedure can be followed. The femurs, tibiae and lumbar vertebrae 1 to 4 are excised and collected. The proximal left and right tibiae are used for pqCT measurements, cancellous bone mineral density (BMD) (gravimetric determination), and histology, while the midshaft of each tibiae is subjected to cortical BMD or histology. The femurs are prepared for pqCT scanning of the midshaft prior to biomechanical testing. With respect to lumbar vertebrae (LV), LV2 are processed for BMD (pqCT may also be performed); LV3 are prepared for undecalcified bone histology; and LV4 are processed for mechanical testing.
The compound 59-0145 was tested at various concentrations in the OVX assay conducted as described above. The increase in bone volume was measured by two different groups; one group found 5 μg/kg/day of 59-0145 gave 21% increase over control whereas the second group found a 71% increase. At 50 μg/kg/day, the first group found a 31% increase, and the second a 54% increase.
In another experiment, 3 month old Sprague Dawley rats were ovariectomized and depleted for six weeks. At the end of the six weeks, treatment was started with subcutaneous administration of compound 59-0145. The treatment continued for 10 weeks. […]

c1ccc(N=NC2=NNc3ccccc3S2)cc1 [Compound 59-0008, 3-phenylazo-1H-4,1,2-benzothiadiazine]
increase of ALP levels compared to the vehicle control (TMC-23 cells): approximately 3 fold | response at maximal activity (BMP2 promoter; at about 3 μM): approximately 175 light emission units | increase in width of new calvarial bone (Swiss white mice): 4 fold

CN(C)c1ccc(C=Cc2cnc3ccccc3n2)cc1 [Compound 59-0019]
activity in the ex vivo calvarial assay, in words (neonatal mouse calvaria): at least some indication of activity

FC(F)(F)c1ccc(NCCNc2ccc(C(F)(F)F)cn2)nc1 [Compound 59-0145]
increase in bone volume over control (ovariectomized rats; 5 μg/kg/day, first group of measurers): 21% | increase in bone volume over control (ovariectomized rats; 5 μg/kg/day, second group of measurers): 71% | increase in bone volume over control (ovariectomized rats; 50 μg/kg/day, first group of measurers): 31% | increase in bone volume over control (ovariectomized rats; 50 μg/kg/day, second group of measurers): 54% | effect on lumbar vertebrae (ovariectomized rats; 5 and 50 μg/kg/day, FIG. 10): beneficial effect | increase in trabecular bone (proximal tibia) compared to placebo-treated group (ovariectomized rats; chronic OVX rats, depleted 6 weeks, subcutaneous, 10 weeks of treatment, 50-500 μg/kg/day): significant increase | activity in the ex vivo calvarial assay, in words (neonatal mouse calvaria): consistent moderate activity

COc1cc(N(C)C)ccc1C=Cc1ccc2ccccc2n1 [Compound 59-0150]
activity in the ex vivo calvarial assay, in words (neonatal mouse calvaria): activity when measured by one group but not the other

CC(CNc1ccc(C(F)(F)F)cn1)Nc1ccc(C(F)(F)F)cn1 (centres unmarked) [Compound 59-0459]
performance in the screening assay relative to 59-0008 (BMP2 promoter): better than 59-0008

N#Cc1ccc(NCCNc2ccc(C(F)(F)F)cn2)nc1 [Compound 59-0483]
performance in the screening assay relative to 59-0008 (BMP2 promoter): better than 59-0008

— patent publication US6649631B1, “Compositions and methods for treating bone deficit conditions” (The Board of Regents of the University of Texas System, priority 1999, dated 2003)
